# Reference: PMC4105567, “Aurora Kinases as Druggable Targets in Pediatric Leukemia: Heterogeneity in Target Modulation Activities and Cytotoxicity by Diverse Novel Therapeutic Agents” (PLoS ONE, 2014)
# Read-outs that look alike come from different tables or passages of the source.
# Legend:
# UOCB1 B-ALL cell line = assay: Cytotoxicity assay, UOCB1; format: cell-based, human; conditions: Homo sapiens, UoC-B1, 96 h, four days in culture, Alamar blue assay or automated microscopy, ± SD, three experiments
# Protocol: (§1) Cell lines were cultured in Opti-MEM medium (Gibco, Life Technologies Corporation, Burlington, Ontario) supplemented with 10% heat inactivated fetal bovine serum (FBS) (Gibco), 100 units/ml penicillin and 100 units/ml streptomycin (Gibco) and 0.05 mM 2-mercaptoethanol (Sigma-Aldrich, Oakville, Ontario) in T25 flasks (Nalge Nunc, Rochester, New York) or T75 flasks (Corning Incorporated, Corning, New York). All cell cultures were maintained at 37°C in a humidified incubator with 5% CO2.
# (§2) For cytotoxicity profiling of Aurora kinase inhibitors against leukemia cell lines, inhibitors or vehicle control (DMSO, Sigma-Aldrich) were diluted in 100 µl of Opti-MEM per well in 96 well plates (Grenier Bio-One, Monroe, North Carolina) in triplicate at final concentrations ranging from 1×10^−6 to 10 µM. 1×10^4 cells per well were seeded and plates were incubated for 4 days. Following incubation for 4 days, cell survival was quantified by Alamar blue assay (Invitrogen) or automated inverted microscopy using the Celigo Cell Cytometer (Cyntellect, San Diego, California). […] During this period of incubation, the absorbance at 570–620 nm was measured (Opsys MR Plate Reader, Dynex Technologies, Chantilly, Virginia) at various time points, depending on the cell line or sample. Percent survival was calculated by comparing the absorbance ratio of the test well to the control well multiplied by 100%, as indicated in the following formula: […]
# (§3) For automated inverted microscopy, the number of cells in each well was determined using the direct cell counting application as described previously. Briefly, following adjustment of image acquisition settings for bright-field imaging, the wells containing cells and appropriate dilutions of inhibitors were individually scanned. Based on these images, analysis parameters, including intensity threshold and cell diameter, were modified for optimal inclusion of viable cells in treated and control wells. These parameters were applied for subsequent replicates involving the same leukemia cell line or sample. The percent survival was then calculated as a ratio of the number of cells in treated wells to the number of cells in control wells multiplied by 100%. Given that Aurora kinase inhibitors interfere with cytokinesis, cells that are committed to death may still contain enlarging but intact cytoplasmic content before the eventual loss of cytoplasmic membrane integrity. The accuracy of Alamar blue assay may be, in theory, affected by the timing of these events.
# [1] = tested on: Patient #3 AML/CML primary leukemia cells; assay: Cytotoxicity assay, primary sample Patient #3; format: cell-based, human; conditions: Homo sapiens, 96 h, four days in culture, Alamar blue assay or automated microscopy, one complete study
# Protocol: (§4) These include B-ALL (Patient #1), relapsed AML (Patient #2), AML/CML (Patient #3), infant ALL (Patient #4), and initial ALL presenting with secondary AML (Patient #5). […] The diluted sample was then layered on a Ficoll-Paque (GE Healthcare, Piscataway, New Jersey) gradient at a 1∶2 ratio of Ficoll to diluted sample. Samples were then centrifuged 1800 rpm for 20 minutes at room temperature. The buffy coat was removed with a pipette and transferred to a new centrifuge tube and diluted with PBS. After an additional centrifugation at 1200 rpm, the white blood cell pellet was washed with PBS and centrifuged one last time. Cells were re-suspended in Opti-MEM and viable cells were counted using trypan blue (Invitrogen, Life Technologies Corporation, Burlington, Ontario) exclusion on a haemocytometer. An identical protocol was followed for the isolation of white blood cells, referred to as “normal lymphocytes” in the following paragraphs, from healthy volunteers. Samples grown in culture for up to six months were cultured in Opti-MEM medium supplemented with 10% heat inactivated FBS, penicillin/streptomycin and 2-mercaptoethanol.
# as §2, §3
# HL-60 RA APML cell line = assay: Cytotoxicity assay, HL-60 RA; format: cell-based, human; conditions: Homo sapiens, 96 h; APML cell line HL-60 RA; four days in culture; Alamar blue assay or automated microscopy; ± SD, three experiments
# Protocol: as §1, §2, §3
# [2] = tested on: Patient #1 B-ALL primary leukemia cells; assay: Cytotoxicity assay, primary sample Patient #1; format: cell-based, human; conditions: Homo sapiens, 96 h, four days in culture, Alamar blue assay or automated microscopy, one complete study
# Protocol: as §4, §2, §3
# TIB-202 AML cell line = assay: Cytotoxicity assay, TIB-202; format: cell-based, human; conditions: Homo sapiens, 96 h; AML cell line TIB-202; four days in culture; Alamar blue assay or automated microscopy; ± SD, three experiments
# Protocol: as §1, §2, §3
# Normal Lymphocytes = assay: Cytotoxicity assay, normal lymphocytes; format: cell-based, human; conditions: Homo sapiens, Lymphocyte, 96 h; normal lymphocytes (control for non-leukemia cytotoxicity); four days in culture; ± SD, three experiments
# Protocol: as §4, §2, §3
# Nalm6 B-ALL cell line = assay: Cytotoxicity assay, Nalm6; format: cell-based, human; conditions: Homo sapiens, NALM-6, 96 h, four days in culture, Alamar blue assay or automated microscopy, ± SD, three experiments
# Protocol: as §1, §2, §3
# C1 B-ALL cell line = assay: Cytotoxicity assay, C1; format: cell-based, human; conditions: Homo sapiens, 96 h, four days in culture, Alamar blue assay or automated microscopy, ± SD, three experiments
# Protocol: as §1, §2, §3
# HL-60 APML cell line = assay: Cytotoxicity assay, HL-60; format: cell-based, human; conditions: Homo sapiens, 96 h; APML cell line HL-60; four days in culture; Alamar blue assay or automated microscopy; ± SD, three experiments
# Protocol: as §1, §2, §3
# CEM T-ALL cell line = assay: Cytotoxicity assay, CEM; format: cell-based, human; conditions: Homo sapiens, 96 h, four days in culture, Alamar blue assay or automated microscopy, ± SD, three experiments
# Protocol: as §1, §2, §3
# [3] = tested on: Patient #5 ALL/AML primary leukemia cells; assay: Cytotoxicity assay, primary sample Patient #5; format: cell-based, human; conditions: Homo sapiens, 96 h, read-out: IC50, Patient #5 ALL/AML
# Protocol: as §4, §2, §3
# B1 B-ALL cell line = assay: Cytotoxicity assay, B1; format: cell-based, human; conditions: Homo sapiens, 96 h, four days in culture, Alamar blue assay or automated microscopy, ± SD, three experiments
# Protocol: as §1, §2, §3
# KOPN8 B-ALL cell line = assay: Cytotoxicity assay, KOPN8; format: cell-based, human; conditions: Homo sapiens, KOPN-8, 96 h, four days in culture, Alamar blue assay or automated microscopy, ± SD, three experiments
# Protocol: as §1, §2, §3
# [4] = tested on: Patient #2 relapsed AML primary leukemia cells; assay: Cytotoxicity assay, primary sample Patient #2; format: cell-based, human; conditions: Homo sapiens, 96 h, four days in culture, Alamar blue assay or automated microscopy, one complete study
# Protocol: as §4, §2, §3
# SEM B-ALL cell line = assay: Cytotoxicity assay, SEM; format: cell-based; conditions: Homo sapiens, 96 h, four days in culture, Alamar blue assay or automated microscopy, ± SD, three experiments
# Protocol: as §1, §2, §3
# Molt-3 T-ALL cell line = assay: Cytotoxicity assay, Molt-3; format: cell-based, human; conditions: Homo sapiens, 96 h; T-ALL cell line Molt-3; four days in culture; Alamar blue assay or automated microscopy; ± SD, three experiments
# Protocol: as §1, §2, §3
# MV4-11 AML cell line = assay: Cytotoxicity assay, MV4-11; format: cell-based, human; conditions: Homo sapiens, 96 h; AML cell line MV4-11; four days in culture; Alamar blue assay or automated microscopy; ± SD, three experiments
# Protocol: as §1, §2, §3
# NB4 APML cell line = assay: Cytotoxicity assay, NB4; format: cell-based, human; conditions: Homo sapiens, 96 h, four days in culture, Alamar blue assay or automated microscopy, ± SD, three experiments
# Protocol: as §1, §2, §3
# [5] = tested on: normal cells versus leukemia cell lines; assay: Comparison of cytotoxicity IC50 values, normal cells versus leukemia cell lines; format: cell-based, human; conditions: normal lymphocytes and bone marrow stroma versus leukemia cell lines of Table 2
# Protocol: as §2, §3
# Aurora-B = tested on: Aurora-B; parameters: method as in earlier work; conditions: literature values; ref [10],[22],[27],[40],[44]–[64] as listed per inhibitor in Table 1; read-out: Targets (IC50 Value): Aurora-B; cited from earlier work
# [6] = tested on: Patient #4 infant leukemia primary cells; assay: Cytotoxicity assay, primary sample Patient #4; format: cell-based, human; conditions: Homo sapiens, 96 h, four days in culture, Alamar blue assay or automated microscopy, one complete study
# Protocol: as §4, §2, §3
# Aurora-C = conditions: read-out: Targets (IC50 Value): Aurora-C; literature values; ref [10],[40],[44]–[64] as listed per inhibitor in Table 1; cited from earlier work
# Bone Marrow Stroma = assay: Cytotoxicity assay, bone marrow stroma; format: cell-based, human; conditions: Homo sapiens, 96 h; bone marrow stroma (control for non-leukemia cytotoxicity); four days in culture; ± SD, three experiments
# Protocol: as §2, §3
# Molm13 AML cell line = assay: Cytotoxicity assay, Molm13; format: cell-based, human; conditions: Homo sapiens, MOLM-13, 96 h, four days in culture, Alamar blue assay or automated microscopy, ± SD, three experiments
# Protocol: as §1, §2, §3
# Aurora-A = tested on: Aurora-A; parameters: method as in earlier work; conditions: read-out: Targets (IC50 Value): Aurora-A; cited from earlier work
# [7] = primary sample, four days in culture, Alamar blue assay or automated microscopy, one complete study
Structure (SMILES),IC50 (UOCB1 B-ALL cell line) [nM],IC50 [1] [nM],IC50 (HL-60 RA APML cell line) [nM],IC50 [2] [nM],IC50 (TIB-202 AML cell line) [nM],IC50 (Normal Lymphocytes) [nM],IC50 (Nalm6 B-ALL cell line) [nM],IC50 (C1 B-ALL cell line) [nM],IC50 (HL-60 APML cell line) [nM],IC50 (B1 B-ALL cell line) [nM],IC50 (KOPN8 B-ALL cell line) [nM],IC50 [4] [nM],IC50 (SEM B-ALL cell line) [nM],IC50 (Molt-3 T-ALL cell line) [nM],IC50 (MV4-11 AML cell line) [nM],IC50 (NB4 APML cell line) [nM],IC50 values for the normal cells compared with IC50 values for the leukemia cell lines (potential therapeutic window) [5],IC50 [6] [nM],IC50 (Aurora-C) [nM],IC50 (Bone Marrow Stroma) [nM],other results
CCc1cccc(CC)c1NC(=O)N1Cc2n[nH]c(NC(=O)c3ccc(N4CCN(C)CC4)cc3)c2C1 [PHA-680632],1000 ± 500,> 10000,90 ± 10,10,6000 ± 1000,> 10000,400 ± 200,100 ± 50,6000 ± 2000,5000 ± 900,60 ± 20,2000,800 ± 300,100 ± 60,300 ± 200,900 ± 90,"lower than the IC50 values for the normal cells, but not as pronounced",> 10000,120,2000 ± 900,IC50 (CEM T-ALL cell line): 300 ± 100 nM; IC50 [3]: 0.8 nM; IC50 (Aurora-B): 135 nM; IC50 (Molm13 AML cell line): 30 ± 20 nM
CO[C@@H](C(=O)N1Cc2n[nH]c(NC(=O)c3ccc(N4CCN(C)CC4)cc3)c2C1)c1ccccc1 [PHA-739358],60 ± 20,> 10000,7 ± 1,0.9,2000 ± 900,> 10000,9 ± 0.9,8 ± 1,900 ± 100,2000 ± 900,2 ± 1,300,80 ± 20,4 ± 2,3 ± 2,200 ± 100,"lower than the IC50 values for the normal cells, but not as pronounced",> 10000,61,3000 ± 1000,"IC50 (CEM T-ALL cell line): 10 ± 6 nM; IC50 [3, 7]: 1 nM; IC50 (Molm13 AML cell line): 6 ± 1 nM"
Cc1cc(Nc2cc(N3CCN(C)CC3)nc(Sc3ccc(NC(=O)C4CC4)cc3)n2)[nH]n1 [VX-680],< 0.001,2000,1 ± 0.5,0.09,7 ± 3,5000 ± 900,0.2,0.4,60 ± 5,5 ± 3,3 ± 0.5,100,60 ± 20,0.9,2 ± 1,7 ± 2,higher than the IC50 values for the leukemia cell lines,1000,[…],> 10000,"IC50 (Aurora-A): […]; IC50 [3, 7]: 0.5 nM; IC50 (Molm13 AML cell line): 4 ± 2 nM"
